Data taken from patent US20220347323A1, “Positron Emission Tomography Guided Delivery of Mitochondral Complex I Inhibitors” (priority 2019, published 2022).
Entries after “also recorded” stand apart in the source; their conditions may differ.

How the values were obtained:
Kras/Lkb1 lung tumors [1] = assay: Treatment of Kras/Lkb1 mice, tumor burden; format: in vivo, mouse
A549 and RH2 cells = assay: Cell viability of human ADC (A549) and SCC (RH2) cell lines; format: cell-based; settings: A549 vs RH2, 48 hr, low doses
Description: (§1) Experiments were repeated twice.

Kras/Lkb1 lung tumors [2] = assay: Ki67 staining of TTF1+ and CK5+ Kras/Lkb1 tumors after treatment; format: in vivo, mouse; settings: 15 mg/kg/day, 12 days
Kras/Lkb1 lung tumors [3] = assay: Cleaved caspase 3 and Ki67 staining of Kras/Lkb1 tumors; format: in vivo, mouse; settings: short-term 5 day treatment
Method: After the fixation step in 10% neutral buffered formalin overnight, lungs were transferred to 70% ethanol and further processing and embedding was done by the TPCL at UCLA. The following antibodies were used: anti-CK5 (EP1601Y) (abcam, ab52635 1:100), anti-TTF1 (8G7G3/1) (Dako, 1:1000), anti-Ki67 (SP6) (Thermo-Scientific, RM-9106-SO 1:200), anti-Glut1 (alpha-diagnostic, GT11-A, 1:400). Slides were scanned onto a ScanScope AT (Aperio Technologies Inc.). Digital slides were analyzed with Definiens and QuPath software.

[4] = test system: mouse adenocarcinoma and squamous cell carcinoma cell lines; assay: Cell viability of mouse adenocarcinoma and squamous cell carcinoma cell lines; format: cell-based; settings: 48 hr, low doses
Description: as §1

Kras/Lkb1 lung tumors [5] = assay: 18FBnTP PET of lung tumors in Kras/Lkb1 GEMMS before and after treatment; format: in vivo, mouse; settings: 5 days, vs vehicle
Description: We performed studies with the genetically engineered mouse model of lung cancer using Kras-Lox-Stop-Lox-G12D; Lkb1 Lox/Lox; Rosa26-Lox-Stop-Lox-Luc mice (KL) as described previously [Ref. 33]. Briefly, lung tumors were induced by intranasal administration of 5×10^5 transduction units of Lenti-PGK-Cre (Cat. #FCT071, Kerafast,) as previously described [Ref. 9, 33]. Lentiviral delivery of Cre recombinase to KL mice leads to near 100% development of lung adenocarcinomas [Ref. 36]. KL mice that were inhaled with LentiCre were used in studies with Phenformin treatment. For studies where mice were imaged with both ^18FBnTP and ^18F-FDG probes, KL mice were inhaled with Adenoviral Cre, which leads to development of both ADC and SCC tumors. For all treatments, KL mice were imaged with ^18FBnTP and sorted into two groups based on tumor maximum percent injected dose per gram (%ID/g) values, so that two groups would have similar maximum %ID/g values. Treatment was initiated on the same day or on the following day after ^18FBnTP imaging. Mice were treated with 125 mg/kg/day phenformin for 5 days or 15 mg/kg/day IACS-010759 for 12 days. The drugs were delivered by oral gavage. All experimental procedures that were performed on mice were approved by the UCLA Animal Research Committee (ARC). Both male and female mice were used in all experiments and no preference in mouse gender was given for any of the studies.
In order to reduce variability between mice imaged with ^18FBnTP, maximum percent injected dose per gram (%ID/g) for each tumor was normalized to maximum %ID/g of heart as indicated in the figures. For waterfall plots in FIG. 2m and FIGS. 8e-8f, we calculated % change in the uptake of the ^18FBnTP probe post-treatment relative to pre-treatment using maximum %ID/g of the tumor that was normalized to maximum %ID/g of the heart for each mouse.

A549 cells [6] = assay: Mitochondrial membrane potential (ΔΨ) by TMRE flow cytometry, A549; format: cell-based, human; settings: A549, short-term treatment 3 hr
Method: Experiments were conducted by analyzing TMRE fluorescence using flow cytometry. […] Cells were resuspended in 0.5 ml DMEM with 5% FBS containing different concentrations of phenformin or oligomycin or FCCP as indicated in figure legends. […] Cells were washed twice in phenol red free DMEM and cellular fluorescence was acquired with a BD LSRII analyzer at UCLA Flow Cytometry Core. Data was analyzed with Flowing Software.

A549 cells [7] = assay: In vitro 18FBnTP uptake assay, A549; format: cell-based, human; settings: A549, 1 mM, 3 hr
[8] = Phenformin quantification in lung tumors by LC/MS; format: in vivo, mouse; settings: 100-200 mg/kg oral gavage, 5 days, vs vehicle
Method: Tumors were homogenized with a Tissue Master (Omni international) in 1 ml chilled 80% Methanol. Tumor suspensions were spun down at 4° C. for 5 min at 17,000g, and the top layer taken as extracted metabolites. The volume equivalent of 1 mg of tumor was transferred into glass vials and the samples were dried with a EZ2-Elite lyophilizer (Genevac). Dried metabolites were re-suspended in 100 μl of 50%:50% acetonitrile (ACN):dH20 solution; 10 μl of these suspensions were injected per analysis. Samples were run on a Vanquish (Thermo Scientific) UHPLC system with mobile phase A (5 mM NH4AcO, pH 9.9) and mobile phase B (ACN). […] The UHPLC was coupled to a Q-Exactive (Thermo Scientific) mass analyzer running in positive mode at 3.5 kV with an MS1 resolution of 70,000. Metabolites were identified using exact mass (MS1), retention time, and fragmentation patterns (MS2) at normalized collision energy (NCE) 35. Quantification was performed via area under the curve (AUC) integration of MS1 ion chromatograms with the MZmine 2 software package. For the quantification of absolute moles of phenformin, one tumor from the vehicle group was selected to provide a representative tumor small molecular matrix. […]

Kras/Lkb1 tumors = settings: cited from earlier work
A549 cells [9] = assay: Respirometry (Seahorse OCR), A549; format: cell-based, human; settings: A549, 1 mM, 45 min
Method: Experiments were conducted on a Seahorse XF96 Extracellular Flux Analyzer (Agilent Technologies) in order to measure oxygen consumption rate (OCR) and extracellular acidification rate (ECAR). […] On the day of the experiment, assay medium (Seahorse XF Base Medium supplemented with 2 mM L-glutamine, 1mM Pyruvate and 10 mM glucose) was freshly prepared. The cells were washed twice with assay medium and brought to a final volume of 175 μL per well. The XF96 plate was placed in a 37° C. incubator without CO2 for 30 minutes prior to loading the plate into the instrument. Injection of compounds during the assay included: the mitochondrial ATP Synthase inhibitor oligomycin (final concentration of 2 μM); the chemical uncoupler, FCCP (final concentration of 1 μM); and the Complex I inhibitors rotenone (final concentrations 2 μM) and phenformin (final concentration 1 mM) and Complex III inhibitor antimycin A (final concentrations of 2 μM). […] Activity of complex I was measured in permeabilized cells using XF PMP assay where complex I dependent OCR was measured by determining OCR in the presence of pyruvate and malate (as substrates for complex I) before and after addition of rotenone (complex I inhibitor).

Row | Compound | tumor burden (percent of lung area occupied by tumor) (Kras/Lkb1 lung tumors [1]; 15 mg/kg/day oral gavage, 12 days, vs vehicle) | sensitivity of 18FBnTP POS tumors to complex I inhibition (Kras/Lkb1 lung tumors [1]; Kras/Lkb1 mice) | sensitivity (cell viability) of lung ADC line vs SCC line (A549 and RH2 cells) | Ki67 positive cells in TTF1+ ADCs (Kras/Lkb1 lung tumors [2]) | response of CK5+ SCCs (Ki67) (Kras/Lkb1 lung tumors [2]) | cleaved caspase 3 and Ki67 staining (apoptosis, proliferation) (Kras/Lkb1 lung tumors [3]) | sensitivity (cell viability) of lung ADC line vs SCC line [4] | 18FBnTP uptake in lung tumors post-treatment (Kras/Lkb1 lung tumors [5]; 125 mg/kg/day oral gavage) | 18FBnTP uptake in lung tumors, three independent experiments (Kras/Lkb1 lung tumors [5]; 125 mg/kg/day) | change in 18FBnTP uptake post-treatment to pre-treatment (Kras/Lkb1 lung tumors [5]; 125 mg/kg/day) | ΔΨ measured by TMRE staining (A549 cells [6]) | 18FBnTP uptake (gamma counter) (A549 cells [7]) | phenformin in lung tumor tissue by mass spectrometry [8] | cellular apoptosis after longer treatment (Kras/Lkb1 tumors; 4-8 weeks treatment, Ref. 9,19) | sensitivity of Kras/Lkb1 tumors (Kras/Lkb1 tumors; Ref. 9) | response of lung SCC tumors from Kras/Lkb1 mice (Kras/Lkb1 tumors; Ref. 19,33) | cellular OXPHOS (OCR) by respirometry (A549 cells [9])
1 | Cc1nc(-c2nc(-c3ccc(OC(F)(F)F)cc3)no2)nn1Cc1cccc(N2CCC(S(C)(=O)=O)CC2)c1 [IACS-010759] | significant reduction in tumor burden | sensitive | more sensitive | significant reduction in Ki67 positive cells | refractory | – | – | – | – | – | – | – | – | – | – | – | –
2 | [H]/N=C(/N)N/C(=N/[H])NCCc1ccccc1 [phenformin] | – | – | more sensitive | – | – | no evidence of phenformin induced apoptosis or reduced cell viability; also recorded: does not induced changes in proliferation or apoptosis | more sensitive | significant reduction; also recorded: suppresses | significant reduction | significant drop in tracer uptake | significantly reduced ΔΨ in a dose dependent manner | significantly reduced | significant increase in phenformin in tumors | resulted in cellular apoptosis | sensitive | refractory | significant reduction of cellular OXPHOS
